Values quoted from earlier work in patent US20230374563A1, “Methods for Antimicrobial Susceptibility Testing” (MicrobeDX, Inc., priority 2017, published 2023).
Converted amounts (≈) assume the structure as drawn.

Tested on: bacteria
Settings: for CLSI MIC Cutoffs for (Urine) AST Determination I / MIC Criteria CLSI M100 (2018) I: Intermediate; for CLSI MIC Cutoffs for (Urine) AST Determination R / MIC Criteria CLSI M100 (2018) R: Resistant; for CLSI MIC Cutoffs for (Urine) AST Determination S / MIC Criteria CLSI M100 (2018) S: Susceptible; for MIC Criteria CLSI M100 (2018) S: cefazolin cutoffs for cases not identified as uncomplicated

Compound | CLSI MIC Cutoffs for (Urine) AST Determination I | CLSI MIC Cutoffs for (Urine) AST Determination R | CLSI MIC Cutoffs for (Urine) AST Determination S | MIC Criteria CLSI M100 (2018) I [µg/mL] | MIC Criteria CLSI M100 (2018) R [µg/mL] | MIC Criteria CLSI M100 (2018) S [µg/mL]
NCC[C@H](O)C(=O)N[C@@H]1C[C@H](N)[C@@H](O[C@H]2O[C@H](CN)[C@@H](O)[C@H](O)[C@H]2O)[C@H](O)[C@H]1O[C@H]1O[C@H](CO)[C@@H](O)[C@H](N)[C@H]1O [Amikacin] | 32 µg/mL | ≥64 µg/mL | ≤16 µg/mL |  |  | 
CC1(C)S[C@@H]2[C@H](NC(=O)[C@H](N)c3ccccc3)C(=O)N2[C@H]1C(=O)O [Ampicillin] | 16 µg/mL | ≥32 µg/mL | <8 µg/mL | 16 (≈ 45.8 µM) | ≥32 | ≤8
CO/N=C(\C(=O)N[C@@H]1C(=O)N2C(C(=O)O)=C(CSc3nc(=O)c(=O)[nH]n3C)CS[C@H]12)c1csc(N)n1 [Ceftriaxone] | 2 µg/mL | ≥4 µg/mL | ≤1 µg/mL | 2 (≈ 3.61 µM) | ≥4 | ≤1
C[C@@H](O)[C@H]1C(=O)N2C(C(=O)O)=C(S[C@@H]3CN[C@H](C(=O)Nc4cccc(C(=O)O)c4)C3)[C@H](C)[C@H]12 [Ertapenem] | 1 µg/mL | ≥2 µg/mL | ≤0.5 µg/mL |  |  | 
C[C@@H]1O[C@@H]1P(=O)(O)O [Fosfomycin] | 128 µg/mL | ≥256 µg/mL | ≤64 µg/mL |  |  | 
C[C@@H](O)[C@H]1C(=O)N2C(C(=O)O)=C(S[C@@H]3CN[C@H](C(=O)N(C)C)C3)[C@H](C)[C@H]12 [Meropenem] | 2 µg/mL | ≥4 µg/mL | ≤1 µg/mL |  |  | 
Amoxicillin/Clavulanate [Amox/Clav] | 16/8 | ≥32/16 | ≤8/4 |  |  | 
Gentamicin | 8 µg/mL | ≥16 µg/mL | ≤4 µg/mL |  |  | 
Piperacillin/Tazobactam [Pip/Tazo] |  | ≥128/4 | ≤16/4 |  |  | 
Trimethoprim/Sulfamethoxazole [TMP/SMX] |  | ≥4/76 | ≤2/38 |  |  | 
